Consider 11 compounds from patent US20220017516A1, “LOX INHIBITORS” (THE INSTITUTE OF CANCER RESEARCH: ROYAL CANCER HOSPITAL, priority 2018, published 2022).

One experiment has as its target T1, LOXL2 (Homo sapiens, UniProt Q9Y4K0).
T1 construct: purchased R&D Systems/Bio-techne
T1 sequence (Q9Y4K0 26-774): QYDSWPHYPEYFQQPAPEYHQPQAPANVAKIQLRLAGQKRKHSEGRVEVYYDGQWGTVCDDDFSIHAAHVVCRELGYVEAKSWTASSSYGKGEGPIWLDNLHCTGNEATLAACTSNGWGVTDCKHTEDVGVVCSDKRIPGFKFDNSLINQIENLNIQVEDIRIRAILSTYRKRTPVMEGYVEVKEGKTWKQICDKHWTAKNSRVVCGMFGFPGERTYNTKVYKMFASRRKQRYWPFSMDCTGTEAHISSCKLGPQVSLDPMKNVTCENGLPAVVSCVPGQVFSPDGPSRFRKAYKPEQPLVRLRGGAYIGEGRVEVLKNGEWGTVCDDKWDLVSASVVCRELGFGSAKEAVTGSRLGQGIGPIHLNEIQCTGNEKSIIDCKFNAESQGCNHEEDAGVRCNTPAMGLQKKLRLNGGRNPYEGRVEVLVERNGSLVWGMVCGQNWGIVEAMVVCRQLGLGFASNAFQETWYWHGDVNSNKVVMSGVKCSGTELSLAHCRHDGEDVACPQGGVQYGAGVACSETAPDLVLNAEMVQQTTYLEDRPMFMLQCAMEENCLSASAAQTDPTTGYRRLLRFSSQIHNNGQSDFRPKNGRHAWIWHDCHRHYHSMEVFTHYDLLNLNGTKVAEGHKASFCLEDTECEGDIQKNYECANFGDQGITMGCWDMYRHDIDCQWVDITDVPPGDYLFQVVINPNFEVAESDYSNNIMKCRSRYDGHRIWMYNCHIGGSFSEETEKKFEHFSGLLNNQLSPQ
The experiment is described as follows: LOX isoform activity assay (ROS Glo), LOXL2. It counts as biochemical. As to the method:
(§1) LOX was extracted from pig skin by previously described methods (Shackleton and Hulmes, 1990). LOXL2 and LOXL3 were obtained from R&D Systems/Bio-techne. The Promega ROS Glo assay kit (G8821) was used to assess enzyme activity. Overall, test compound was added to either 384 well assay plates (Greiner) using a Labcyte Echo™ Acoustic Handler or to 96 well plates for a final assay concentration of 100, 30, 10, 3, 1, 0.3, 0.1, 0.03, 0.01 and 0.003 μM final assay concentration. Enzymes were diluted according to specific pre-determined activity in assay buffer (100 mM CHES, pH 9, 0.05% (w/v) pluronic F-127, 0.5% (w/v) BSA, 1 mM MgCl2, 1 M urea, 100 mM NaCl) and added to the plate. For LOXL2, the mixture was incubated for 20 min, 1 h or 20 h; for LOX and LOXL3, incubation time was 1 h. Cadaverine and H2O2 substrate were then added to each well (final assay concentration 19.56 mM and 25 μM respectively) and the plates were incubated for 1.5 h (for LOX) or 1 h (for LOXL2 and LOXL3) at room temperature. Finally, luciferin detection reagent was added and plates were incubated for 20 min at room temperature, protected from light. Luminescence was measured using a BMG LABTECH PHERAstar FS reader and resulting IC50 values were calculated using GraphPad Prism software.
In another setting, LOXL2 enzyme was diluted according to specific pre-determined activity in assay buffer (100 mM CHES, pH 9, 0.05% (w/v) pluronic F-127, 0.5% (w/v) BSA, 1 mM MgCl2, 1 M urea, 100 mM NaCl). Overall, 0.5 μl test compound was added to 40 μl assay buffer+LOXL2 at 100, 30, 10, 3, 1, 0.3, 0.1, 0.03, 0.01 and 0.003 μM (final concentration) in a 96-well white polystyrene, flat bottom plates (Fisher) and incubated for the indicated time at room temperature. 10 μl of assay buffer containing 97.8 mM cadaverine and 125 μM H2O2 substrate (final assay concentration 19.56 mM and 25 μM respectively) were added to each well and plates were incubated for 1 h at room temperature. Finally, 50 μl per well luciferin detection reagent was added and plates were incubated for 20 min at room temperature, protected from light. Luminescence was measured with an integration time of 500 ms per well using a SpectaMax M5 plate reader and resulting IC50 values were calculated using GraphPad Prism software.

A further experiment addresses T2, LOX (Sus scrofa, UniProt P45845).
T2 construct: LOX was extracted from pig skin by previously described methods; from tissue; host or cells: pig skin
T2 sequence (P45845 1-249): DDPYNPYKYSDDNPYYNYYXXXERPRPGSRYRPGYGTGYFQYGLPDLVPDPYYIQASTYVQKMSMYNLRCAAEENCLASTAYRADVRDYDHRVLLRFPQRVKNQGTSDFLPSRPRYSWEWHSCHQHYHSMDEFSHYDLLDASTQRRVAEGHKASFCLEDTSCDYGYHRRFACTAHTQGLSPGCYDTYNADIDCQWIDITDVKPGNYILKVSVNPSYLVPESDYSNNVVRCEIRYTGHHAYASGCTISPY
The experiment is described as follows: LOX isoform activity assay (ROS Glo), LOX. Type of experiment: biochemical, pig. The conditions noted are these: 1 h incubation with enzyme. As to the method:
as §1

Experiment [1] deals with T3, monoamine oxidase B (MAO-B) (Homo sapiens, UniProt P27338).
T3 construct: purchased Sigma M7441
T3 sequence (P27338 1-520): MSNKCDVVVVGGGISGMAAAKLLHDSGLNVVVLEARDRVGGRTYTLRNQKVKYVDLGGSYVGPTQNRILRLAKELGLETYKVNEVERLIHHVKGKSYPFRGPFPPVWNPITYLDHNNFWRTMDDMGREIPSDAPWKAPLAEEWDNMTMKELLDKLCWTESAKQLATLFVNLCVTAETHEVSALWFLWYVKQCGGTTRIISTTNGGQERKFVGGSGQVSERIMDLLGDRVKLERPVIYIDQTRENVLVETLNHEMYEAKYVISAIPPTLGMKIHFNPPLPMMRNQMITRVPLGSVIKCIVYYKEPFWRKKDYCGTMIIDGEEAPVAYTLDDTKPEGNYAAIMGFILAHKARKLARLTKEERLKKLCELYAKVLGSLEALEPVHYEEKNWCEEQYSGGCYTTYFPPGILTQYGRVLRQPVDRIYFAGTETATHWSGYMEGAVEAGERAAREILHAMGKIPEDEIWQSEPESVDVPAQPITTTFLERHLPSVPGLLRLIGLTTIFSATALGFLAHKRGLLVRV
Description: Amine oxidase activity assay (MAO-Glo), MAO-B. Type of experiment: biochemical. As to the method: (§2) The Promega MAO-Glo assay kit (V1402) was used to assess monoamine oxidase A (MAO-A) and monoamine oxidase B (MAO-B) activity. MAO substrate was prepared at 80 μM with the specific MAO-A/B reaction buffer. Overall, 0.5 μl test compound was added to 25 μl MAO substrate at 100, 30, 10, 3, 1, 0.3, 0.1, 0.03, 0.01 and 0.003 μM (final concentration) in a 96-well white, flat bottom plate. Overall, 25 μl of 1:520 dilution of MAO-A enzyme (Promega, V1452) or 25 μl of 1:52 dilution of MAO-B enzyme (Sigma, M7441) in specific MAO-A/B reaction buffer was added to each well (enzyme prepared at 2×final concentration) and plates were incubated for 1 h at room temperature. Finally, 50 μl per well luciferin detection reagent was added and plates were incubated for 20 min at room temperature, protected from light. Luminescence was measured with an integration time of 500 ms per well using a SpectaMax M5 plate reader and resulting IC50 values were calculated using GraphPad Prism software.
(§3) In another setting, the DAO and MAO assays were performed in 384-well plates (Greiner) and test compound was added using a Labcyte Echo™ Acoustic Handler for the same final concentrations as in the 96-well setting. Luminescence was measured with BMG LABTECH PHERAstar FS plate reader.

Experiment [2] addresses T4, monoamine oxidase A (MAO-A) (Homo sapiens, UniProt P21397).
T4 construct: purchased Promega V1452
T4 sequence (P21397 1-527): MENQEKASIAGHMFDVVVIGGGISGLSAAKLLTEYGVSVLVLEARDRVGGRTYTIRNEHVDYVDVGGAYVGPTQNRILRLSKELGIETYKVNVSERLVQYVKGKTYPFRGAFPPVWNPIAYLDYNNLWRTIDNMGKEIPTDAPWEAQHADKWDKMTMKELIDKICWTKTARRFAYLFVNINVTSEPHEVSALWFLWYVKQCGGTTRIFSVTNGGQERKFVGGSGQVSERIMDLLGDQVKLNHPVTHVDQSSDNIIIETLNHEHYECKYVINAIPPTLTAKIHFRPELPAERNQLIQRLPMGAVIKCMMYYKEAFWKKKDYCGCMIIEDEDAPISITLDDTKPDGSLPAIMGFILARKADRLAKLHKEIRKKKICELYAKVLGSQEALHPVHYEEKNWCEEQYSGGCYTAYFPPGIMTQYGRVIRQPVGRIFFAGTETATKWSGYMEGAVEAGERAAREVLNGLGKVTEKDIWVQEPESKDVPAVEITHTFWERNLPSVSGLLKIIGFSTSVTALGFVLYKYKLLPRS
Description: Amine oxidase activity assay (MAO-Glo), MAO-A. It counts as biochemical. As for the experimental part:
as §2, §3

Setting [3] is: 1 hr incubation with enzyme; read-out: LOXL2 IC50 b) 1 hr.
Setting [4] is: 20 hr incubation with enzyme; read-out: LOXL2 IC50 c) 20 hr.
The mark [5] stands for this setting: 20 min incubation with enzyme; read-out: LOXL2 IC50 a) 20 min.

Where two headings read alike, the source gives them in different places.

Take `CC1(C)C[C@@H]2CN(C(=O)C(F)S(=O)(=O)CCN)C[C@H]1N(c1ccc(N3CCS(=O)(=O)CC3)cc1)C2` (stereo partly drawn) [Example 17, 2-((2-aminoethyl)-sulfonyl)-1-((1S,5S)-6-(4-(1,1-dioxido-thiomorpholino)-phenyl)-9,9-dimethyl-3,6-diaza-bicyclo[3.2.2]nonan-3-yl)-2-fluoroethan-1-one]: the IC50 (in general, the concentration needed to halve the response being measured) on LOXL2 (setting [3]) amounted to 0.11 µM. On to `CC1(C)C[C@@H]2CN(C(=O)CS(=O)(=O)CCN)C[C@H]1N(c1ccc(N3CCS(=O)(=O)CC3)cc1)C2` [Example 10, 2-((2-aminoethyl)-sulfonyl)-1-((1S,5S)-6-(4-(1,1-dioxido-thiomorpholino)-phenyl)-9,9-dimethyl-3,6-diaza-bicyclo[3.2.2]nonan-3-yl)ethan-1-one], for which the IC50 at LOXL2 (setting [4]) came out at 0.94 µM. The same measure, in the same setting: to `CC1(C)C[C@@H]2CN(C(=O)NCCO)C[C@H]1N(c1ccc(OCCCS(=O)(=O)CCN)cc1)C2` [Example 34, (1S,5S)-6-(4-(3-((2-aminoethyl)sulfonyl)propoxy)phenyl)-N-(2-hydroxyethyl)-9,9-dimethyl-3,6-diazabicyclo[3.2.2]nonane-3-carboxamide] belongs 9.3 µM. Still for that read-out and setting: to `CC1(C)C[C@@H]2CN(C(=O)N3CCS(=O)(=O)CC3)C[C@H]1N(c1ccc(OCCCS(=O)(=O)CCN)cc1)C2` [Example 35, ((1S,5S)-6-(4-(3-((2-aminoethyl)sulfonyl)-propoxy)phenyl)-9,9-dimethyl-3,6-diaza-bicyclo[3.2.2]nonan-3-yl)(1,1-dioxido-thiomorpholino) methanone] belongs 6.7 µM. In the case of `CCOc1ccc(N2C[C@H]3CN(C(=O)C(C)S(=O)(=O)CCN)C[C@@H]2C(C)(C)C3)cc1` (mixture of isomers) [Example 39, 2-((2-aminoethyl)sulfonyl)-1-((1S,5S)-6-(4-ethoxyphenyl)-9,9-dimethyl-3,6-diazabicyclo[3.2.2]nonan-3-yl)propan-1-one], the IC50 at LOXL2 (setting [3]) was 0.41 µM; against LOX, 10 µM. Turning to `CCOc1ccc(N2C[C@H]3CN(C(=O)c4ccc(S(=O)(=O)CCN)cc4)C[C@@H]2C(C)(C)C3)cc1` [Example 31, (4-((2-aminoethyl)sulfonyl)phenyl)((1S,5S)-6-(4-ethoxyphenyl)-9,9-dimethyl-3,6-diazabicyclo[3.2.2]nonan-3-yl)methanone], the IC50 is 16 µM on LOXL2 (setting [5]) and 96 µM against LOX. For the compound `CCNC(=O)N1C[C@@H]2CN(c3ccc(OCCCS(=O)(=O)CCN)cc3)[C@H](C1)C(C)(C)C2` [Example 36, (1S,5S)-6-(4-(3-((2-aminoethyl)sulfonyl)propoxy)phenyl)-N-ethyl-9,9-dimethyl-3,6-diazabicyclo[3.2.2]nonane-3-carboxamide], the IC50 at LOXL2 (setting [4]) was found to be 5.1 µM; at LOX it was 4.5 µM. For `CCOc1ccc(N2C[C@@H]3CC[C@H]2CN(C(=O)CS(=O)(=O)CCN)C3)cc1` [Example 9, 2-((2-aminoethyl)-sulfonyl)-1-((1S,5S)-6-(4-ethoxyphenyl)-3,6-diazabicyclo-[3.2.2]nonan-3-yl)-ethan-1-one], the IC50 was 0.34 µM on LOXL2 (setting [4]) and over 100 µM on LOX. On to `NCCS(=O)(=O)CCN1CCCN(c2ccc(N3CCS(=O)(=O)CC3)cc2)CC1` [Example 3, 4-(4-(4-(2-((2-aminoethyl)sulfonyl)ethyl)-1,4-diazepan-1-yl)phenyl) thiomorpholine-1,1-dioxide], for which the IC50 was 8.1 µM at LOXL2 (setting [5]), over 100 µM in experiment [1] and over 100 µM in experiment [2]. Take `CC1(C)C[C@@H]2CN(CCS(=O)(=O)CCN)C[C@H]1N(c1ccc(N3CCS(=O)(=O)CC3)cc1)C2` [Example 5, 4-(4-((1R,5S)-3-(2-((2-aminoethyl)sulfonyl)ethyl)-9,9-dimethyl-3,6-diazabicyclo[3.2.2]nonan-6-yl)phenyl)thiomorpholine 1,1-dioxide]: the IC50 at LOXL2 (setting [4]) is 0.48 µM. For the compound `CCOc1ccc(N2C[C@H]3CN(CCCS(=O)(=O)CCN)C[C@@H]2C(C)(C)C3)cc1` [Example 6, 2-((3-((1R,5S)-6-(4-ethoxyphenyl)-9,9-dimethyl-3,6-diazabicyclo[3.2.2]nonan-3-yl)propyl)sulfonyl)ethan-1-amine], the concentration for half-maximal inhibition (IC50) at LOXL2 (setting [4]) was determined as 2.5 µM; against LOX, 58 µM.
